Assay results taken from paper PMC5636616, “Studies on the Interaction of the Histone Demethylase KDM5B with Tricarboxylic Acid Cycle Intermediates” (Journal of Molecular Biology, 2017).
“Also recorded” adds a separate entry of the source. Like-named read-outs stand apart in the source and are kept apart here.

How the values were obtained:
BBOX = conditions: cited from earlier work; for IC50: enzyme concentration 0.025 μM
KDM4E = conditions: cited from earlier work; for IC50: enzyme concentration 2 μM
KDM5B [1] = target: T1, KDM5B (Homo sapiens, UniProt Q9UGL1); conditions: FDH-coupled assay, truncated KDM5B, cited from earlier work
T1 construct: purified recombinant KDM5B (produced in Sf9 insect cells, M1-R822); made in house; host or cells: Sf9 insect cells
T1 sequence (Q9UGL1 1-822): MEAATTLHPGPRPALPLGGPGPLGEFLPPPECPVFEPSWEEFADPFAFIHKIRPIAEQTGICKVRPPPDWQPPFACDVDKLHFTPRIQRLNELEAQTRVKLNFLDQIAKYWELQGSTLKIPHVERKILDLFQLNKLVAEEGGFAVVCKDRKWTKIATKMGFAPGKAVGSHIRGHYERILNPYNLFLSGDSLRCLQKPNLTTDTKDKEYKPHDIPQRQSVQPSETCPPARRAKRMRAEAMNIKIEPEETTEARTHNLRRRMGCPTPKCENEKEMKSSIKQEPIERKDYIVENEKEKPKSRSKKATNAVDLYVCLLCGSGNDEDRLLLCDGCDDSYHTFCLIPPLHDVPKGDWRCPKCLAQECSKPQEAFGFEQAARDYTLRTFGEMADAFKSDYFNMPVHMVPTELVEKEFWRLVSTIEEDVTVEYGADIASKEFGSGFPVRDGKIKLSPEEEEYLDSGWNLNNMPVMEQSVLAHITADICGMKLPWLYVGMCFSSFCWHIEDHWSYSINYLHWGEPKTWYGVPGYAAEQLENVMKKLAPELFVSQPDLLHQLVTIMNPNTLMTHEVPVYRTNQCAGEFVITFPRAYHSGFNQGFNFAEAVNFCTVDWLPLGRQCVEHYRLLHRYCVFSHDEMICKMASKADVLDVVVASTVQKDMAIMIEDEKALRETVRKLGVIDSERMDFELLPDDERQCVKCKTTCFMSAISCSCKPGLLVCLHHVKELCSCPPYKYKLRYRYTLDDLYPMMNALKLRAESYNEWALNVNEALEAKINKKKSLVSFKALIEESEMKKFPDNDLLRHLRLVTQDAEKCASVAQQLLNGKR

KDM4C = test system: KDM4C; set-up: method as in PMID 21460794; conditions: read-out: Km^app(2OG); cited from earlier work
ABH2 = test system: ABH2; set-up: method as in PMID 21460794; conditions: read-out: Km^app(2OG); cited from earlier work
FIH = conditions: cited from earlier work
PHD2 = conditions: cited from earlier work
KDM4A = test system: KDM4A; set-up: method as in PMID 21460794; conditions: read-out: Km^app(2OG); cited from earlier work
TET1 = conditions: cited from earlier work
KDM2A = test system: KDM2A; set-up: method as in PMID 21460794; conditions: cited from earlier work; for IC50: enzyme concentration 2 μM
TET2 = conditions: cited from earlier work
KDM5B [2] = target: T1, KDM5B; assay: KDM5B inhibition assay, MALDI-TOF-MS (IC50); assay type: biochemical
[3] = test system: T2, over-expressed KDM5B in U2-OS cells; assay: Immunofluorescence assay of H3K4me3 demethylation in U2-OS cells overexpressing KDM5B; assay type: cell-based, human; conditions: for inhibition of KDM5B-mediated H3K4me3 demethylation (IF): U2-OS cells overexpressing Flag-tagged WT KDM5B, 24 h treatment, esters dosed up to 5–10 mM
T2 construct: expressed in transfected cells; host or cells: U2-OS osteosarcoma cells, transient transfection with pCDNA5-FRT-TO-3FLAG vector
Method: EC50 curves for cells overexpressing Flag-tagged KDM5B. […] Results for dimethyl-2OG (a), dimethyl-succinate (b), dimethyl-D-2HG (c), dimethyl-L-2HG (d), octyl-D-2HG (e), octyl-L-2HG (f), and KDOAM-25 (g). Dashed lines represent IF levels in non-inhibitor controls.
The cellular effects of dimethyl ester precursors of TCA cycle-related metabolites as potential inhibitors of H3K4me3 demethylation were then assessed. We used an established immunofluorescence (IF) procedure with ectopically overexpressed wild-type KDM5B (WT KDM5B) in U2-OS cells and anti-H3K4me3 antibody monitoring for changes in H3K4me3 methylation levels. […] Cells with overexpressed KDM5B were treated with different concentrations of the TCA cycle-related pro-drug esters (previously established as cell permeable in other cell-based studies), [51], [52], [53], [54] for 24 h, the H3K4me3 levels were then analyzed in the transfected cells. The reported KDM5B inhibitor KDOAM-25 ((2)-((((2)-(((2)-(dimethylamino)ethyl)(ethyl)amino)-(2)-oxoethyl)amino)methyl)isonicotinamide) was used as a positive control for inhibition, [55].
Immunofluorescent cell-based assays were performed as reported. The human U2-OS osteosarcoma cells were cultured as a monolayer in Dulbecco's modified Eagle's medium (Invitrogen) supplemented with 10% heat-inactivated fetal bovine serum (Life Technologies) and 1% Glutamax. […] Cells were transiently transfected using cDNA and Lipofectamine 3000 (Life Technologies). Four hours after transfection, the cells were subjected to treatment with serial dilutions of compound. After 24 h, the cells were fixed with 4% formaldehyde and stained with anti-Flag antibody (Sigma F3165), an anti-methylated histone antibody (H3K4me3 DiagenodeC15410003). The cells were then stained with secondary antibodies [Alexa Fluor 488 and Alexa Fluor 568-labeled (Life Technologies)] and 4’,6-diamidino-2-phenylindole. Image acquisition was conducted using Operetta High Content Imaging System (PerkinElmer), and image analysis was performed using the Columbus software (PerkinElmer). A minimum threshold for anti-Flag intensity was set to ensure that only cells highly producing the demethylase were analyzed.

isolated KDM5B = test system: isolated KDM5B; set-up: method as in PMID 28262558; conditions: AlphaScreen assay; cited from earlier work
KDM5B [4] = target: T1, KDM5B; assay: KDM5B kinetic assays, MALDI-TOF-MS (Km, Ki with respect to 2OG); assay type: biochemical; conditions: for mode of inhibition: with respect to 2OG
U2-OS cells = assay: Toxicity to U2-OS cells in the cellular assay; assay type: cell-based, human; conditions: data not shown
[5] = 0.6 μM KDM5B, 3 μM 2OG, 5 μM H3K4me2(1–21), 10 μM Fe(II), 500 μM L-ascorbate, pH 7.5, errors 95% confidence intervals

O=C(O)CCC(=O)C(=O)O [2OG, 2-oxoglutarate]
Km (BBOX; read-out: Km^app(2OG)): 470 µM
Km (KDM4E; read-out: Km^app(2OG)): 13.2 µM
Km (KDM5B [1]; read-out: Km^app(2OG)): 6 µM
Km (KDM4C): 4 µM
Km (ABH2): 10 µM
Km (FIH; read-out: Km^app(2OG)): 110 ± 20 µM
Km (PHD2; read-out: Km^app(2OG)): 13 ± 2 µM
Km (KDM4A): 6 µM
Km (TET1; read-out: Km^app(2OG)): 55 ± 20 µM
Km (KDM2A; read-out: Km^app(2OG)): 12.5 µM
Km (TET2; read-out: Km^app(2OG)): 60 ± 15 µM

O=C(O)CC(O)(CC(=O)O)C(=O)O [Citrate]
IC50 (KDM5B [2]; [5]): Inactive
IC50 (KDM5B [2]; read-out: IC50): > 1000 µM
inhibition at 1000 µM (KDM5B [2]; read-out: inhibition at 1 mM): 18%

O=C(O)CC[C@@H](O)C(=O)O [D-2HG, D-2-hydroxyglutarate]
IC50 (BBOX): 13200 µM
IC50 (KDM2A): 106 ± 22 µM
IC50 (TET2): 5000 µM

O=C(O)/C=C/C(=O)O [Fumarate]
IC50 (KDM5B [2]): 210 ± 80 µM
IC50 (KDM4E): 2.3 µM
IC50 (FIH): > 1000 µM
IC50 (PHD2): 3 µM
IC50 (TET1): 390 ± 160 µM
IC50 (TET2): 400 ± 70 µM

CCN(CCN(C)C)C(=O)CNCc1cc(C(N)=O)ccn1 [KDOAM-25, (2)-((((2)-(((2)-(dimethylamino)ethyl)(ethyl)amino)-(2)-oxoethyl)amino)methyl)isonicotinamide]
inhibition of KDM5B-mediated H3K4me3 demethylation (IF) [3]: manifested the expected levels of inhibition; also recorded: observe inhibition
compound concentration at which H3K4me3 fluorescence reaches levels of KDM5B Mut ([3]; U2-OS cells overexpressing WT KDM5B, 24 h): 1 mM
IC50 (isolated KDM5B): 0.019 µM

O=C(O)CC[C@H](O)C(=O)O [L-2HG, L-2-hydroxyglutarate]
IC50 (BBOX): 142 ± 30 µM
IC50 (FIH; enzyme concentration 1 μM): 189 ± 34 µM
IC50 (TET1): 1000 µM
IC50 (KDM2A): 48 ± 15 µM
IC50 (TET2): 1600 µM

O=C(O)CC(O)C(=O)O (centres unmarked) [Malate, malate]
IC50 (KDM5B [2]; read-out: IC50): 127 ± 72 µM

O=C(O)CC(=O)C(=O)O [Oxaloacetate]
Vm^app (KDM5B [4]; in presence of 15 μM oxaloacetate): 0.0066 µM/s
Vm^app (KDM5B [4]; in presence of 50 μM oxaloacetate): 0.0070 µM/s
Vm^app (KDM5B [4]; in presence of 100 μM oxaloacetate): 0.0069 µM/s
mode of inhibition (KDM5B [4]): 2OG competitive manner
IC50 (KDM5B [2]; read-out: IC50): 15 ± 10 µM

CC(=O)C(=O)O [Pyruvate, pyruvate]
IC50 (KDM5B [2]; [5]): very weak KDM5B inhibitor
IC50 (KDM5B [2]; read-out: IC50): 703 ± 26 µM

O=C(O)CCC(=O)O [Succinate, succinate]
Ki (KDM5B [4]; competitive inhibition model, shared/global fit, read-out: Ki (best-fit value, GraphPad Prism global fit)): 26.8 µM
Vm^app (KDM5B [4]; in presence of 30 μM succinate): 0.0044 µM/s
Vm^app (KDM5B [4]; in presence of 100 μM succinate): 0.0046 µM/s
Vm^app (KDM5B [4]; in presence of 300 μM succinate): 0.0046 µM/s
mode of inhibition (KDM5B [4]): 2OG competitive manner
IC50 (KDM5B [2]; read-out: IC50): 62 ± 19 µM
IC50 (KDM4E): 320 µM
IC50 (FIH): > 1000 µM
IC50 (PHD2): 19 µM
IC50 (TET1): 540 ± 100 µM
IC50 (TET2): 570 ± 190 µM

COC(=O)CCC(=O)C(=O)OC [dimethyl-2OG, Dimethyl-2-oxoglutarate]
inhibition of KDM5B-mediated H3K4me3 demethylation (IF) [3]: do not inhibit; also recorded: no inhibition of KDM5B activity was observed
change in H3K4me3 levels / KDM5B activity in response to compound ([3]; U2-OS cells overexpressing KDM5B, increasing concentrations, 24 h): No decrease in the H3K4me3 levels was observed; also recorded: did not show any effect

COC(=O)CC[C@@H](O)C(=O)OC [dimethyl-D-2HG]
inhibition of KDM5B-mediated H3K4me3 demethylation (IF) [3]: do not inhibit; also recorded: no inhibition of KDM5B activity was observed

COC(=O)CC[C@H](O)C(=O)OC [dimethyl-L-2HG]
inhibition of KDM5B-mediated H3K4me3 demethylation (IF) [3]: do not inhibit; also recorded: no inhibition of KDM5B activity was observed

COC(=O)CCC(=O)OC [dimethyl-succinate, dimethylsuccinate]
inhibition of KDM5B-mediated H3K4me3 demethylation (IF) [3]: do not inhibit

COC(=O)/C=C/C(=O)OC [dimethylfumarate]
inhibition of KDM5B-mediated H3K4me3 demethylation (IF) [3]: no inhibition of KDM5B activity was observed
inhibition of KDM5B-mediated H3K4me3 demethylation (IF) ([3]; listed as Dimethylfumarate): did not show any inhibition at lower concentrations
toxic concentration (U2-OS cells): higher than 400 μM

CCCCCCCCOC(=O)[C@H](O)CCC(=O)O [octyl-D-2HG]
inhibition of KDM5B-mediated H3K4me3 demethylation (IF) [3]: do not inhibit; also recorded: no inhibition of KDM5B activity was observed

CCCCCCCCOC(=O)[C@@H](O)CCC(=O)O [octyl-L-2HG]
inhibition of KDM5B-mediated H3K4me3 demethylation (IF) [3]: do not inhibit; also recorded: no inhibition of KDM5B activity was observed

H3K4me2(1–21): 21-mer histone H3 peptide fragment dimethylated at lysine-4, KDM5B substrate [reference compound]
Km (KDM5B [4]; KDM5B(1–822), 10 μM 2OG, read-out: Km^app(H3K4me2(1–21))): ~0.5 µM
Km (KDM5B [1]; read-out: Km^app for H3K4me2(1–21)): 0.85 µM
